According to patent US10544147B2, “Purine inhibitors of human phosphatidylinositol 3-kinase delta” (MERCK SHARP & DOHME CORP., priority 2016, dated 2020):

Columns and labels:
PI3Kalpha = PI3Kalpha (Homo sapiens (Human), UniProt P42336); assay: HTRF PI3K biochemical assay, alpha isoform (selectivity versus delta); details: ratio PI3K-alpha IC50 value/PI3K-delta IC50 value
PI3Kdelta = PI3Kdelta (Homo sapiens (Human), UniProt O00329); assay: HTRF PI3K biochemical assay, delta isoform; details: 0.3 nM enzyme, 100 uM ATP, 50 uM PIP2; form screened (neutral or TFA salt)
Sequence of PI3Kdelta (O00329 whole entry, canonical isoform): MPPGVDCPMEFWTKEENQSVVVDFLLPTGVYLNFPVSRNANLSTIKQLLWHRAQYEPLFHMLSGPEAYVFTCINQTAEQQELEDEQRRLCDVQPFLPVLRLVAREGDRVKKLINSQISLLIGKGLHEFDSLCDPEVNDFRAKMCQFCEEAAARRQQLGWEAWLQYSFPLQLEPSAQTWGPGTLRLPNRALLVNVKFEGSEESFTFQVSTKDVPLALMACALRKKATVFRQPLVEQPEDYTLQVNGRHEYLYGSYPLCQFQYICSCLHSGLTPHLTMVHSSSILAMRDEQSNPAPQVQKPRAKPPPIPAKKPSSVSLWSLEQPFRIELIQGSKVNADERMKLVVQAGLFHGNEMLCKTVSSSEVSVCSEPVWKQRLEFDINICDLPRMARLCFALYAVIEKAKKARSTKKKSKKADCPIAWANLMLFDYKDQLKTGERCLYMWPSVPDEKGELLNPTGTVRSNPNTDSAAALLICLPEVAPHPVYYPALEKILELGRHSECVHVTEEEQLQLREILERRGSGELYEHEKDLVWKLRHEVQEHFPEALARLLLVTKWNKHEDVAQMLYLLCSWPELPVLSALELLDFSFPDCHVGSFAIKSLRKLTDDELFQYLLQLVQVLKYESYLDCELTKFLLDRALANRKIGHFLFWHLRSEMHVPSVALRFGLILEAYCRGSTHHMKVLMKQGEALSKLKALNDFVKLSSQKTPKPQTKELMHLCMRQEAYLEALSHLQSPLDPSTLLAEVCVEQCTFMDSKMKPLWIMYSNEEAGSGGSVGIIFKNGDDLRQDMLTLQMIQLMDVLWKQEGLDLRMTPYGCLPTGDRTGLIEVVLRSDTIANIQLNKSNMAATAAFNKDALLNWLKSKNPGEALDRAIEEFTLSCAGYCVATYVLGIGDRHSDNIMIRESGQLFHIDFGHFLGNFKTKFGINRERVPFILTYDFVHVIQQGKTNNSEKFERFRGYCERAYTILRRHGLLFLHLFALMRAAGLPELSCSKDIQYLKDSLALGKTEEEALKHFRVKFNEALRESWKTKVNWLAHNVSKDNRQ
Sequence of PI3Kdelta (P27986 whole entry partner, canonical isoform): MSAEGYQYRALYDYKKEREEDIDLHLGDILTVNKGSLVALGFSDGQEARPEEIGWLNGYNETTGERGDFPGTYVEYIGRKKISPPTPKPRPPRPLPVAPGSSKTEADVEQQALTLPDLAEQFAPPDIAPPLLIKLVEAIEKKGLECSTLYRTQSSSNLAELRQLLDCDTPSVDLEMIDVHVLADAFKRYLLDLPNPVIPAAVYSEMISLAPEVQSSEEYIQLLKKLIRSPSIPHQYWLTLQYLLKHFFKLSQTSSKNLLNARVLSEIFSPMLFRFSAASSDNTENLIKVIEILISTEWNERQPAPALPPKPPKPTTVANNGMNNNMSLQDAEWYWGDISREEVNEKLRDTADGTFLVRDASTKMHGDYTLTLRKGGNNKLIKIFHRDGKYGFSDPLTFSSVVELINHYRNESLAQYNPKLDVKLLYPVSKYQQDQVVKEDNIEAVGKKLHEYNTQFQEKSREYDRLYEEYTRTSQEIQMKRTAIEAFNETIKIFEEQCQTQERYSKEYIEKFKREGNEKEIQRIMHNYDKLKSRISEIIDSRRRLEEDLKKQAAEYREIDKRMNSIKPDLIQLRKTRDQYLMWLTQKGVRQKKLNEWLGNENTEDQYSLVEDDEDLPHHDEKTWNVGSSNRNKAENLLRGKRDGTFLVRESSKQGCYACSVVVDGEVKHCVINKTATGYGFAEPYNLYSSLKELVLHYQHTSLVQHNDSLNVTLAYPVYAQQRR

Sequence of PI3Kalpha (P42336 whole entry, canonical isoform): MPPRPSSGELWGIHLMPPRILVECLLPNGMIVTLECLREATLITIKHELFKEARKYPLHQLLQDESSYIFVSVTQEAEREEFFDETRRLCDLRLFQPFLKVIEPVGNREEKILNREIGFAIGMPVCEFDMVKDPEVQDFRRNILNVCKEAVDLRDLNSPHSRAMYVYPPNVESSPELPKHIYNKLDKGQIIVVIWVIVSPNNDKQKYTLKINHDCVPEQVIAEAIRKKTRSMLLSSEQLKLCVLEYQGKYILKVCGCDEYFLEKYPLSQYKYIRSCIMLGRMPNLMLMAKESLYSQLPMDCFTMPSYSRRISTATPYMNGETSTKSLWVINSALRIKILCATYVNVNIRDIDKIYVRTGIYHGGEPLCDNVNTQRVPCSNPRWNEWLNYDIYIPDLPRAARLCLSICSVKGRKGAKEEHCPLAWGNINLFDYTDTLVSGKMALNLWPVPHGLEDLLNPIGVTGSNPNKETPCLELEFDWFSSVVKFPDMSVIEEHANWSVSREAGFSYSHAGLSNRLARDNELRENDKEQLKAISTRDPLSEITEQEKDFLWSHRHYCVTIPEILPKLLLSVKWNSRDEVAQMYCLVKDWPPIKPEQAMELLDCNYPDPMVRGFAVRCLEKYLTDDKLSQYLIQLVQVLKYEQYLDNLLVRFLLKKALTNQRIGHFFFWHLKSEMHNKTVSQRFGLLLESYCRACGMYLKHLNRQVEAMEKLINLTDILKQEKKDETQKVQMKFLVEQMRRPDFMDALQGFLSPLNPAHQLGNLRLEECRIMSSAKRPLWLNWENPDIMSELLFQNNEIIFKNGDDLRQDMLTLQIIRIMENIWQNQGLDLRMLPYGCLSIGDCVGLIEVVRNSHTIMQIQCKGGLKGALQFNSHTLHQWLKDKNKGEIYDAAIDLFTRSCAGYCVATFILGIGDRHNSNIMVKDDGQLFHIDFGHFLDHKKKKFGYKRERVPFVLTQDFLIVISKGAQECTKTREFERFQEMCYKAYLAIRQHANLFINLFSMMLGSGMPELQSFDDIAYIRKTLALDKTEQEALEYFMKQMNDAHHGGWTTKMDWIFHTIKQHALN
Sequence of PI3Kalpha (P27986 whole entry partner, canonical isoform): as the sequence (P27986 whole entry partner, canonical isoform) above

| SMILES | Relative Selectivity versus PI3Kalpha (PI3Kalpha) | IC50 (PI3Kdelta) |
| --- | --- | --- |
| CCn1c(-c2cnc(C)nc2)nc2c(-c3ccc4c(c3)C(C)(CC3(C)COC3)C(=O)N4)ncnc21 (single isomer, unassigned) [Compound 1-6, (R or S)-5-[9-ethyl-8-(2-methylpyrimidin-5-yl)-9H-purin-6-yl]-3-methyl-3-[(3-methyloxetan-3-yl)methyl]-1,3-dihydro-2H-indol-2-one] | >10 | 15 nM |
| CCn1c(-c2cnc(C)nc2)nc2c(-c3ccc4c(c3)C(C)(NC(C)C)C(=O)N4)ncnc21 (single isomer, unassigned) [Compound 2-31, (R or S)-5-[9-ethyl-8-(2-methylpyrimidin-5-yl)-9H-purin-6-yl]-3-methyl-3-[(1-methylethyl)amino]-1,3-dihydro-2H-indol-2-one] | >10 | 479 nM |
| CCn1c(-c2cnc(C)nc2)nc2c(-c3ccc4c(c3)C(C)(N[C@H](C)C3CCC3)C(=O)N4)ncnc21 (mixture of isomers) [Compound 2-17, 3-{[(1R)-1-cyclobutylethyl]amino}-5-[9-ethyl-8-(2-methylpyrimidin-5-yl)-9H-purin-6-yl]-3(R and S)-methyl-1,3-dihydro-2H-indol-2-one] | >10 | 10 nM |
| CCn1c(-c2cnc(C)nc2)nc2c(-c3ccc4c(c3)C(C)(NCC(C)(C)C#N)C(=O)N4)ncnc21 (single isomer, unassigned) [Compound 2-40, (R or S)-3-((5-(9-ethyl-8-(2-methylpyrimidin-5-yl)-9H-purin-6-yl)-3-methyl-2-oxoindolin-3-yl)amino)-2,2-dimethylpropanenitrile] | >10 | 179 nM |
| CCn1c(-c2cnc(C)nc2)nc2c(-c3ccc4c(c3)C(C)(N3CC(OC)C3)C(=O)N4)ncnc21 (single isomer, unassigned) [Compound 2-78, (R or S)-5-(9-ethyl-8-(2-methylpyrimidin-5-yl)-9H-purin-6-yl)-3-(3-methoxyazetidin-1-yl)-3-methylindolin-2-one] | >10 | 238 nM |
| CCn1c(-c2cnc(C)nc2)nc2c(-c3ccc4c(c3)C(C)(N3CC(C)(O)C3)C(=O)N4)ncnc21 (single isomer, unassigned) [Compound 2-80, (R or S)-5-(9-ethyl-8-(2-methylpyrimidin-5-yl)-9H-purin-6-yl)-3-(3-hydroxy-3-methylazetidin-1-yl)-3-methylindolin-2-one] | >10 | 7 nM |
| CCn1c(-c2cnc(C)nc2)nc2c(-c3ccc4c(c3)C(C)(NC[C@@H]3CCCO3)C(=O)N4)ncnc21 (mixture of isomers) [Compound 2-21, 5-[9-ethyl-8-(2-methylpyrimidin-5-yl)-9H-purin-6-yl]-3(R and S)-methyl-3-{[(2S)-tetrahydrofuran-2-ylmethyl]amino}-1,3-dihydro-2H-indol-2-one] | >10 | 22 nM |
| CCn1c(-c2cnc(C)nc2)nc2c(-c3cnc4c(c3)C(C)(CC(C)C)C(=O)N4)ncnc21 (single isomer, unassigned) [Compound 1-12, 5-(9-ethyl-8-(2-methylpyrimidin-5-yl)-9H-purin-6-yl)-3-isobutyl-3-methyl-1,3-dihydro-2H-pyrrolo[2,3-b]pyridin-2-one] | >10 | 9 nM |
| CCn1c(-c2cnc(C)nc2)nc2c(-c3ccc4c(c3)C(C)(N3CC5(CCOC5)C3)C(=O)N4)ncnc21 (racemic) [Compound 2-28, (R and S)-5-[9-ethyl-8-(2-methylpyrimidin-5-yl)-9H-purin-6-yl]-3-methyl-3-(6-oxa-2-azaspiro[3.4]oct-2-yl)-1,3-dihydro-2H-indol-2-one] | >10 | 49 nM |
| CCn1c(-c2cnc(C)nc2)nc2c(-c3ccc4c(c3)C(C)(NCC(C)C)C(=O)N4)ncnc21 (single isomer, unassigned) [Compound 2-66, (R or S)-5-(9-ethyl-8-(2-methylpyrimidin-5-yl)-9H-purin-6-yl)-3-(isobutylamino)-3-methylindolin-2-one] | >10 | 1 nM |
| CCn1c(-c2cnc(C)nc2)nc2c(-c3ccc4c(c3)C(C)(CC)C(=O)N4)ncnc21 (single isomer, unassigned) [Compound 1-39, (R or S)-3-ethyl-5-(9-ethyl-8-(2-methylpyrimidin-5-yl)-9H-purin-6-yl)-3-methylindolin-2-one] | >10 | 85 nM |
| Cc1ncc(-c2nc3c(-c4ccc5c(c4)C(C)(NCC(C)(F)F)C(=O)N5)ncnc3n2C)cn1 (single isomer, unassigned) [Compound 2-69, (R or S)-3-((2,2-difluoropropyl)amino)-3-methyl-5-(9-methyl-8-(2-methylpyrimidin-5-yl)-9H-purin-6-yl)indolin-2-one] | 5 | 788 nM |
| CCn1c(-c2cnc(C)nc2)nc2c(-c3ccc4c(c3)C(C)(N3C[C@H]5C[C@@H]3CO5)C(=O)N4)ncnc21 (mixture of isomers) [Compound 2-26, 5-[9-ethyl-8-(2-methylpyrimidin-5-yl)-9H-purin-6-yl]-3(R and S)-methyl-3-[(1R,4R)-2-oxa-5-azabicyclo[2.2.1]hept-5-yl]-1,3-dihydro-2H-indol-2-one] | >10 | 58 nM |
| CCn1c(-c2cnc(C)nc2)nc2c(-c3cnc4c(c3)C(C)(N3CC(C)(C#N)C3)C(=O)N4)ncnc21 (single isomer, unassigned) [Compound 2-54, (S or R)-1-(5-(9-ethyl-8-(2-methylpyrimidin-5-yl)-9H-purin-6-yl)-3-methyl-2-oxo-2,3-dihydro-1H-pyrrolo[2,3-b]pyridin-3-yl)-3-methylazetidine-3-carbonitrile] | >10 | 168 nM |
| CCn1c(-c2cnc(C)nc2)nc2c(-c3ccc4c(c3)C(C)(C3CCOCC3)C(=O)N4)ncnc21 (single isomer, unassigned) [Compound 1-34, 5-(9-Ethyl-8-(2-methylpyrimidin-5-yl)-9H-purin-6-yl)-3-methyl-3-(tetrahydro-2H-pyran-4-yl)indolin-2-one] | 8 | 48 nM |

The next lines start with the values.

| Relative Selectivity versus PI3Kalpha (PI3Kalpha) | IC50 (PI3Kdelta) | SMILES |
| --- | --- | --- |
| >10 | 9 nM | CCN1CCCC12C(=O)Nc1ccc(-c3ncnc4c3nc(-c3cnc(C)nc3)n4CC)cc12 (single isomer, unassigned) [Compound 3-27, (R or S)-1′-ethyl-5-(9-ethyl-8-(2-methylpyrimidin-5-yl)-9H-purin-6-yl)spiro[indoline-3,2′-pyrrolidin]-2-one] |
| >10 | 6 nM | CCn1c(-c2cnc(C)nc2)nc2c(-c3ccc4c(c3)C(C)(CC(C)C)NS4(=O)=O)ncnc21 (single isomer, unassigned) [Compound 4-5, (R or S)-9-ethyl-6-[3-methyl-3-(2-methylpropyl)-1,1-dioxido-2,3-dihydro-1,2-benzisothiazol-5-yl]-8-(2-methylpyrimidin-5-yl)-9H-purine] |
| >10 | 7 nM | CCn1c(-c2cnc(C)nc2)nc2c(-c3ccc4c(c3)C(C)(CC(C)C)NC4=O)ncnc21 (single isomer, unassigned) [Compound 4-7, (R or S)-5-[9-ethyl-8-(2-methylpyrimidin-5-yl)-9H-purin-6-yl]-3-methyl-3-(2-methylpropyl)-2,3-dihydro-1H-isoindol-1-one] |
| >10 | 29 nM | CCN1CCCC12C(=O)Nc1ccc(-c3ncnc4c3nc(-c3cnc(C)nc3)n4CC)cc12 (single isomer, unassigned) [Compound 3-26, (R or S)-1′-ethyl-5-(9-ethyl-8-(2-methylpyrimidin-5-yl)-9H-purin-6-yl)spiro[indoline-3,2′-pyrrolidin]-2-one] |
| >10 | 14 nM | CCn1c(-c2cnc(C)nc2)nc2c(-c3ccc4c(c3)C3(CCN(C(C)C)C3)C(=O)N4)ncnc21 (single isomer, unassigned) [Compound 3-35, (R or S)-5-(9-ethyl-8-(2-methylpyrimidin-5-yl)-9H-purin-6-yl)-1′-isopropylspiro[indoline-3,3′-pyrrolidin]-2-one] |
| 5 | 156 nM | CCn1c(-c2cnc(C)nc2)nc2c(-c3ccc4c(c3)C3(CCCO3)C(=O)N4)ncnc21 (single isomer, unassigned) [Compound 3-30, (R or S)-5′-(9-ethyl-8-(2-methylpyrimidin-5-yl)-9H-purin-6-yl)-4,5-dihydro-3H-spiro[furan-2,3′-indolin]-2′-one] |
| >10 | 6 nM | CCn1c(-c2cnc(C)nc2)nc2c(-c3ccc4c(c3)C3(CCCN3S(C)(=O)=O)C(=O)N4C)ncnc21 (single isomer, unassigned) [Compound 3-23, (R or S)-5-(9-ethyl-8-(2-methylpyrimidin-5-yl)-9H-purin-6-yl)-1-methyl-1′-(methylsulfonyl)spiro[indoline-3,2′-pyrrolidin]-2-one] |
| >10 | 26 nM | CCn1c(-c2cnc(C)nc2)nc2c(-c3ccc4c(c3)C3(CCN(C(=O)C5CC5)C3)C(=O)N4)ncnc21 (single isomer, unassigned) [Compound 3-6, (R or S)-1′-(cyclopropanecarbonyl)-5-(9-ethyl-8-(2-methylpyrimidin-5-yl)-9H-purin-6-yl)spiro[indoline-3,3′-pyrrolidin]-2-one] |
| >10 | 4 nM | CCn1c(-c2cnc(C)nc2)nc2c(-c3ccc4c(c3)C3(CCCN3S(=O)(=O)C(F)(F)F)C(=O)N4)ncnc21 (single isomer, unassigned) [Compound 3-22, (R or S)-5-(9-ethyl-8-(2-methylpyrimidin-5-yl)-9H-purin-6-yl)-1′-((trifluoromethyl)sulfonyl)spiro[indoline-3,2′-pyrrolidine]-2-one] |
